From patent US11230538B2, “Herbicides” (SYNGENTA PARTICIPATIONS AG, priority 2016, dated 2022)

Legend:
Type in all cases: in vivo
[1] = test system: Alopecurus myosuroides (ALOMY); assay: B1 Pre-emergence herbicidal activity; design: key: 5=total damage to plant; 0=no damage to plant; conditions: pre-emergence application, rate 1000 g/ha, evaluated after 13 days
Outline: (§1)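 Pre-emergence spray one day after sowing; vehicle acetone/water 50:50 + 0.5% Tween 20. Glasshouse 24/16 °C, 14 h light, 65% RH, watered twice daily. Visual damage score at day 13, 0–5 scale (5 = total damage).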

Avena fatua (AVEFA) [2] = assay: B1 Pre-emergence herbicidal activity; design: key: 5=total damage to plant; 0=no damage to plant; conditions: pre-emergence application, rate 1000 g/ha, evaluated after 13 days
Outline: as §1

[3] = test system: Triticum aestivium (TRZAW); assay: B1 Pre-emergence herbicidal activity; design: key: 5=total damage to plant; 0=no damage to plant; conditions: pre-emergence application, rate 1000 g/ha, evaluated after 13 days
Outline: as §1

[4] = test system: Echinochloa crus-galli (ECHCG); assay: B1 Pre-emergence herbicidal activity; design: key to Pre-emergence herbicidal activity, ECHCG (damage score 0-5): 5=total damage to plant; 0=no damage to plant; conditions: pre-emergence application, rate 1000 g/ha, evaluated after 13 days
Outline: as §1

Lolium perenne (LOLPE) [5] = assay: B1 Pre-emergence herbicidal activity; design: key to Pre-emergence herbicidal activity, LOLPE (damage score 0-5): 5=total damage to plant; 0=no damage to plant; conditions: pre-emergence application, rate 1000 g/ha, evaluated after 13 days
Outline: as §1

Setaria fabenr (SETFA) = assay: B1 Pre-emergence herbicidal activity; design: key to Pre-emergence herbicidal activity, SETFA (damage score 0-5): 5=total damage to plant; 0=no damage to plant; conditions: pre-emergence application, rate 1000 g/ha, evaluated after 13 days
Outline: as §1

Avena fatua (AVEFA) [6] = assay: B2 Post-emergence herbicidal activity; conditions: post-emergence application, rate 1000 g/ha, evaluated after 13 days
Outline: (§2)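 Post-emergence spray, 8-day-old potted seedlings; formulation acetone:water 50:50 + 0.5% Tween 20. Glasshouse 24/16 °C, 14 h light, 65% RH. Scored day 13, 0 (no damage) to 5 (total damage).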

[7] = test system: Echinochloa crus-galli (ECHCG); assay: B2 Post-emergence herbicidal activity; design: key to Post-emergence herbicidal activity, ECHCG (damage score 0-5): 5=total damage to plant; 0=no damage to plant; conditions: post-emergence application, rate 1000 g/ha, evaluated after 13 days
Outline: as §2

Lolium perenne (LOLPE) [8] = assay: B2 Post-emergence herbicidal activity; conditions: post-emergence application, rate 1000 g/ha, evaluated after 13 days
Outline: as §2

[9] = test system: Alopecurus myosuroides (ALOMY); assay: B2 Post-emergence herbicidal activity; design: key: 5=total damage to plant; 0=no damage to plant; conditions: post-emergence application, rate 1000 g/ha, evaluated after 13 days
Outline: as §2

Setaria fabenri (SETFA) = assay: B2 Post-emergence herbicidal activity; design: key: 5=total damage to plant; 0=no damage to plant; conditions: post-emergence application, rate 1000 g/ha, evaluated after 13 days
Outline: as §2

[10] = test system: Triticum aestivium (TRZAW); assay: B2 Post-emergence herbicidal activity; design: key: 5=total damage to plant; 0=no damage to plant; conditions: post-emergence application, rate 1000 g/ha, evaluated after 13 days
Outline: as §2

Row | Structure (SMILES) | Pre-emergence herbicidal activity, ALOMY (damage score 0-5) [1] | Pre-emergence herbicidal activity, AVEFA (damage score 0-5) (Avena fatua (AVEFA) [2]) | Pre-emergence herbicidal activity, TRAZW (damage score 0-5) [3] | Pre-emergence herbicidal activity, ECHCG (damage score 0-5) [4] | Pre-emergence herbicidal activity, LOLPE (damage score 0-5) (Lolium perenne (LOLPE) [5]) | Pre-emergence herbicidal activity, SETFA (damage score 0-5) (Setaria fabenr (SETFA)) | Post-emergence herbicidal activity, AVEFA (damage score 0-5) (Avena fatua (AVEFA) [6]) | Post-emergence herbicidal activity, ECHCG (damage score 0-5) [7] | Post-emergence herbicidal activity, LOLPE (damage score 0-5) (Lolium perenne (LOLPE) [8]) | Post-emergence herbicidal activity, ALOMY (damage score 0-5) [9] | Post-emergence herbicidal activity, SETFA (damage score 0-5) (Setaria fabenri (SETFA)) | Post-emergence herbicidal activity, TRAZW (damage score 0-5) [10]
1 | O=C(Nc1ccc(-c2cncc(F)c2)nc1C(F)(F)F)c1cncnc1 [Compound C120, N-[6-(5-fluoro-3-pyridyl)-2-(trifluoromethyl)-3-pyridyl]pyrimidine-5-carboxamide] | 0 | 3 | 0 | 4 | 1 | 5 | 3 | 5 | 3 | 1 | 5 | 2
2 | Cc1ccc(C(=O)Nc2ccc(-c3cncc(F)c3)nc2C(F)(F)F)cc1 [Compound C30] | 2 | 3 | 0 | 5 | 1 | 5 | 4 | 5 | 3 | 0 | 5 | 0
3 | CC(C)(C)C(=O)Nc1ccc(-c2cncc(F)c2)nc1C(F)(F)F [Compound C34] | 0 | 0 | 0 | 2 | 0 | 5 | 3 | 4 | 2 | 1 | 5 | 1
4 | O=C1CCCCN1c1ccc(-c2cncc(F)c2)nc1C(F)(F)F [Compound C54, 1-[6-(5-fluoro-3-pyridyl)-2-(trifluoromethyl)-3-pyridyl]piperidin-2-one] | 0 | 1 | 0 | 2 | 1 | 3 | 3 | 5 | 3 | 1 | 4 | 0
5 | CCC(=O)N(C)c1ccc(-c2cncc(F)c2)nc1C(F)(F)F [Compound C15, N-[6-(5-fluoro-3-pyridyl)-2-(trifluoromethyl)-3-pyridyl]-N-methyl-propanamide] | 0 | 0 | 0 | 5 | 1 | 5 | 3 | 5 | 3 | 1 | 5 | 1
6 | O=C(Nc1ccc(-c2cncc(F)c2)nc1C(F)(F)F)C(Cl)(Cl)Cl [Compound C29] | 0 | 4 | 0 | 5 | 1 | 5 | 4 | 5 | 3 | 0 | 5 | 0
7 | CCC(=O)N(COCC(C)(C)C)c1ccc(-c2cncc(F)c2)nc1C(F)(F)F [Compound C99] | 0 | 1 | 0 | 2 | 1 | 5 | 2 | 4 | 2 | 0 | 5 | 0
8 | C=CCN(C(=O)CC)c1ccc(-c2cncc(F)c2)nc1C(F)(F)F [Compound C39] | 0 | 2 | 0 | 4 | 1 | 5 | 3 | 5 | 2 | 0 | 5 | 1
9 | CCC(=O)Nc1ccc(-c2cncc(F)c2)nc1C(F)(F)F [Compound C13] | 1 | 2 | 0 | 4 | 3 | 5 | 4 | 5 | 4 | 1 | 5 | 0
